Where two headings read alike, the source gives them in different places.
Tests used:
[1] = test system: OVISE (JCRB1043, CCNE1-amplified); test: OVISE EdU incorporation cell proliferation assay (CDK2-dependent); assay type: cell-based; conditions: for IC50: cellular assay, read-out: CDK2 OVISE IC50; for FS SKOV-3/OVISE / FS p-H3/OVISE: fold selectivity; for FS p-H3/OVISE: cellular p-H3 IC50 over OVISE IC50; for increased fold-selectivity SKOV-3/OVISE over Comparator C: (+) sign after FS SKOV-3/OVISE; for improvement in CDK2 OVISE cell potency over Comparator C: in brackets after OVISE IC50, Comparator C 5.5 μM
How it was run: (§1)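 Cells in RPMI/10% FBS dosed with compound (0.5% DMSO final) for 16 h at 37 °C, 5% CO2, then EdU 0.5 μM final for 8 h before fixation and imaging. IC50 from 4-parameter logistic fit of EdU-positive cell fraction versus dose.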

[2] = target: T1, Cyclin Dependent Kinase 1/Cyclin A2 (CDK1-cycA2) (Homo sapiens, UniProt P06493); test: CDK1-cycA2 TR-FRET (Lance) enzyme assay; assay type: biochemical; conditions: for Ki: enzymatic assay; for FS CDK1/CDK2: fold selectivity, enzymatic Ki ratio
T1 construct: purchased ProQinase 0134-0054-1
T1 sequence (P06493 whole entry): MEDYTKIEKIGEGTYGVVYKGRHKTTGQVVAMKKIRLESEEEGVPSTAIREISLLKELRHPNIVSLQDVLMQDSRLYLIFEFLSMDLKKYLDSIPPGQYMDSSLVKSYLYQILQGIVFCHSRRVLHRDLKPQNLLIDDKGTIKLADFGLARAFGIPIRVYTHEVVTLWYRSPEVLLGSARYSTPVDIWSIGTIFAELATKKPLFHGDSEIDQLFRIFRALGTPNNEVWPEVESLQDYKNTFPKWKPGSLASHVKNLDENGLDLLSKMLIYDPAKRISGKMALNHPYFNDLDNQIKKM
T1 sequence (P20248 whole entry partner): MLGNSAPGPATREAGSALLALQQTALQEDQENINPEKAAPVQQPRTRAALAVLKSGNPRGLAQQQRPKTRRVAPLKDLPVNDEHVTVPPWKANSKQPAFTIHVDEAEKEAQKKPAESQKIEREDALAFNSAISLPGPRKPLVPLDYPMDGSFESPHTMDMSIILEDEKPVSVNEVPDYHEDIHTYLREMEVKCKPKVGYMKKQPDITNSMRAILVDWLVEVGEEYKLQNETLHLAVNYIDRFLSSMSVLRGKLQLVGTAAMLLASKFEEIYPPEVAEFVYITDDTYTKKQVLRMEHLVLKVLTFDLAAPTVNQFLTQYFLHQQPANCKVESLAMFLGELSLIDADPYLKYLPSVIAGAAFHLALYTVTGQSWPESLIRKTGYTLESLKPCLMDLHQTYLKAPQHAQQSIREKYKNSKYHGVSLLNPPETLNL
How it was run: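 Human CDK1/cyclin A2 pre-incubated 30 min with compound dose responses in 50 mM HEPES pH 7.5, 10 mM MgCl2, 2 mM TCEP, 0.05% BGG, 0.01% Brij 35. Reaction quenched with EDTA (15 mM final); TR-FRET readout using Eu-anti-phospho-4E-BP1, acceptor/donor ratio. Inhibition constants from Morrison equation.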

[3] = test system: HCT116 cells; test: p-H3 HCT-116 mitotic release cell proliferation assay (cellular CDK1); assay type: cell-based; conditions: for IC50: Homo sapiens, HCT-116, cellular assay, read-out: CDK1 p-H3 IC50; for FS p-H3/OVISE: fold selectivity, cellular IC50 ratio (CDK1 over CDK2)
Experimental: Inhibition of cellular CDK1 determined by release of cells from nocodazole-induced mitotic arrest, as measured by decrease in phospho-Histone H3. Histone H3 (Ser 10) level is detected in cell lysates by producing a Fluorescence Resonance Energy Transfer (FRET) signal between two antibodies, Phospho-Histone H3 Cryptate (acting as the donor) and Phospho-Histone H3 d2 (acting as the acceptor).
Plates are allowed to rest overnight at 37° C./5% CO2. The following morning, nocodazole is diluted in complete medium, and 5 μL is added to each test well and positive control well for a final concentration of 500 nM. Plates are then incubated for 16 hours at 37° C./5% CO2. […] 10 μL of diluted compound is then transferred to the cell plate (final DMSO concentration 0.1%). Cell plates are then incubated for 4 hours in 37° C. 5% CO2. A cell lysis buffer is prepared on ice using reagents from the Phospho-Histone H3 (Ser10) cellular kit (Cisbio-64HH3PEG). Supernatant is discarded from the cell plate and 80 μL of the supplemented cell lysis buffer (1:99 dilution of the Blocking Reagent and the 1× cell lysis buffer provided in the kit) is added to each of the experimental wells. The cell lysis reaction is allowed to proceed at room temperature while shaking vigorously for 30 minutes. The 384-well HTRF (Homogeneous Time Resolved Fluorescence) plate is prepared by adding 2 μL of each diluted antibody (Phospho-Histone H3 Cryptate antibody and Phospho-Histone H3 d2 antibody diluted 19:1 in a detection buffer) and 12 μL of the supplemented cell lysis buffer to each well in the HTRF plate. 4 μL of the cell lysate is added to the prepared HTRF plate which is then sealed and the reaction is allowed to proceed for a minimum of 2 hours at room temperature.

[4] = target: T2, Cyclin Dependent Kinase 2/Cyclin E1 (CDK2-cycE1) (Homo sapiens, UniProt P24941); test: CDK2-cycE1 TR-FRET (LANCE) enzyme assay; assay type: biochemical; conditions: for FS CDK1/CDK2 / FS CDK4/CDK2: fold selectivity; for increased fold-selectivity CDK1/CDK2 over Comparator C: (+) sign after FS CDK1/CDK2; for increased fold-selectivity CDK4/CDK2 over Comparator C: (+) sign after FS CDK4/CDK2;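 for improvement in potency against CDK2 (Ki) over Comparator C: fold lower CDK2 Ki than comparator c (Ki 0.032 µM)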
T2 construct: purchased ProQinase 0050-0055-1
How it was run: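 Compound dose responses pre-incubated 30 min with CDK2-cycE1 in 50 mM HEPES pH 7.5, 10 mM MgCl2, 2 mM TCEP, 0.05% BGG, 0.01% Brij 35. Reaction quenched with EDTA (15 mM final), phospho-MBP detected by Eu-anti-phospho-MBP TR-FRET (acceptor/donor ratio). Inhibition constants from Morrison equation.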

[5] = target: T3, Cyclin Dependent Kinase 4/Cyclin D3 (CDK4-cycD3) (Homo sapiens, UniProt P11802); test: CDK4-cycD3 TR-FRET (LANCE) enzyme assay; assay type: biochemical; conditions: for Ki: enzymatic assay; for FS CDK4/CDK2: fold selectivity, enzymatic Ki ratio
T3 construct: purchased Carna Biosciences 04-105
T3 sequence (P11802 whole entry): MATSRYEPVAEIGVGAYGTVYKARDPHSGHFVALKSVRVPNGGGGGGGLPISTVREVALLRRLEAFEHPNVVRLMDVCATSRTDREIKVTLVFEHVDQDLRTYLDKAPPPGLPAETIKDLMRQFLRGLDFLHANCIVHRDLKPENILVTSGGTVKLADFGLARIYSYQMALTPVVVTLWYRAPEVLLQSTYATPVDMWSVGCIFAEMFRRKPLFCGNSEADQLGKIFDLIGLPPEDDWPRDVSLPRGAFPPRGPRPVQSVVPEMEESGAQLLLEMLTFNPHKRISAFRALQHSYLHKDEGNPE
T3 sequence (P30281 whole entry partner): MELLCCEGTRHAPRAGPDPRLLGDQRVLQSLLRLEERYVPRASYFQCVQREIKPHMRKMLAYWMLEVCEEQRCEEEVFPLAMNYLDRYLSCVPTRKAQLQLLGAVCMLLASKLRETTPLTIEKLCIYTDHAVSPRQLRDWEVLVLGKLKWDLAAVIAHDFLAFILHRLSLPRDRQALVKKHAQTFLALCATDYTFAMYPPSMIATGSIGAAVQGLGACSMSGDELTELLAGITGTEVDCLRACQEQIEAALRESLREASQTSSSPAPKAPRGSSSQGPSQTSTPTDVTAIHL
How it was run: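 Compound dose responses pre-incubated 30 min with enzyme mix in 50 mM HEPES pH 7.5, 10 mM MgCl2, 2 mM TCEP, 0.05% BGG, 0.01% Brij 35. Reaction quenched with EDTA (15 mM final); Eu-anti-phospho-4E-BP1 TR-FRET detection, acceptor/donor ratio. Ki derived by Morrison equation.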

[6] = test system: SKOV-3 (ATCC HTB-77); test: SKOV-3 EdU incorporation cell proliferation assay (CDK4/6-dependent); assay type: cell-based; conditions: for IC50: Homo sapiens, cellular assay, read-out: CDK4/6 SKOV-3 IC50; for FS SKOV-3/OVISE: fold selectivity, cellular IC50 ratio (CDK4/6 over CDK2)
How it was run: as §1

[7] = Table O, cellular SKOV-3 IC50 over OVISE IC50
[8] = Table O, enzymatic assay, read-out: CDK2 Ki
[9] = Table O, enzymatic CDK1 Ki over CDK2 Ki
[10] = Table O, enzymatic CDK4 Ki over CDK2 Ki
[11] = Table Q, enzymatic assay, read-out: CDK2 Ki
[12] = read-out: CDK2 activity / potency (enzymatic assay)

| SMILES | IC50 ([1]; Table O) | FS SKOV-3/OVISE [1, 7] | FS p-H3/OVISE ([1]; Table O) | Ki ([2]; Table O) | IC50 ([3]; Table O) | Ki [4, 8] | FS CDK1/CDK2 [4, 9] | FS CDK4/CDK2 [4, 10] | Ki ([5]; Table O) | IC50 ([6]; SK-OV-3, Table O) | increased fold-selectivity SKOV-3/OVISE over Comparator C ([1]; Table Q) | FS SKOV-3/OVISE ([1]; Table Q, cellular) | improvement in CDK2 OVISE cell potency over Comparator C ([1]; Table Q) | improvement in potency against CDK2 (Ki) over Comparator C [4] | increased fold-selectivity CDK4/CDK2 over Comparator C ([4]; Table Q) | Ki [4, 11] | FS CDK1/CDK2 ([4]; Table Q, enzymatic) | FS CDK4/CDK2 ([4]; Table Q, enzymatic) | IC50 ([6]; SK-OV-3, Table Q) | Ki [4, 12] | other results |
| --- | --- | --- | --- | --- | --- | --- | --- | --- | --- | --- | --- | --- | --- | --- | --- | --- | --- | --- | --- | --- | --- |
| CCn1nc(Nc2cc([C@H]3CC[C@@H](OC(=O)NC(C)C)C3)[nH]n2)ccc1=O [Example 2HH, (1R,3S)-3-(3-((1-ethyl-6-oxo-1,6-dihydropyridazin-3-y1)amino)-1H-pyrazol-5-y1)cyclopenty1 isopropylcarbamate] | 60 nM | 77 | 0.53 | 6.9 nM | 32 nM | 0.43 nM | 16 | 490 | 210 nM | 4600 nM | – | – | – | – | – | – | – | – | – | – | – |
| CC(C)NC(=O)O[C@@H]1CC[C@H](c2cc(Nc3cncnc3)n[nH]2)C1 [Example 2B, (1R,3S)-3-(3-(pyrimidin-5-ylamino)-1H-pyrazol-5-yl)cyclopentyl isopropylcarbamate] | 230 nM | >70 | 1.1 | 160 nM | 2900 nM | 3.4 nM | 47 | 120 | 390 nM | > 20000 nM | (+) (The (+) sign in Table Q signifies desirable increased fold-selectivity of the exemplary compounds over Comparator C) | > 70 | 24 fold | 9 fold | (+) (The (+) sign in Table Q signifies desirable increased fold-selectivity of the exemplary compounds over Comparator C) | 3.4 nM | 47 | 120 | > 20000 nM | – | increased fold-selectivity CDK1/CDK2 over Comparator C ([4]; Table Q): (+) (The (+) sign in Table Q signifies desirable increased fold-selectivity of the exemplary compounds over Comparator C) |
| C[C@H](NC(=O)O[C@@H]1CC[C@H](c2cc(Nc3ccc(=O)n(C)n3)n[nH]2)C1)c1ccccc1 [Example 6E, (1R,3S)-3-(3-((1-methyl-6-oxo-1,6-dihydropyridazin-3-yl)amino)-1H-pyrazol-5-yl)cyclopentyl ((S)-1-phenylethyl)carbamate] | 320 nM | 47 | 0.91 | 48 nM | 290 nM | 2.9 nM | 17 | 6.2 | 18 nM | 15000 nM | – | – | – | – | – | – | – | – | – | – | – |
| CC(C)(C)NC(=O)O[C@@H]1CC[C@H](c2cc(NC(=O)Cc3ccnnc3)n[nH]2)C1 [Comparator A, reference compound] | – | – | – | – | – | – | – | – | – | – | – | – | – | – | – | – | – | – | – | 0.17 nM | IC50 ([1]; Table P): 40 nM; Ki ([2]; Table P): 9.1 nM; FS CDK1/CDK2 ([2]; Table P): 54; pH3/OVISE fold selectivity (CDK1 over CDK2, cellular assay data) [3]: 0.78 fold; IC50 ([3]; Table P): 31 nM; FS p-H3/OVISE ([3]; Table P): 0.78; Ki ([5]; Table P): 38 nM; FS CDK4/CDK2 ([5]; Table P): 224; IC50 ([6]; SK-OV-3, Table P): 1700 nM; FS SKOV-3/OVISE ([6]; Table P): 43 |
| CC(C)(C)NC(=O)O[C@@H]1CC[C@H](c2cc(NC(=O)c3ccnnc3)n[nH]2)C1 [Comparator B, reference compound] | – | – | – | – | – | – | – | – | – | – | – | – | – | – | – | – | – | – | – | 1 nM | IC50 ([1]; Table P): 140 nM; Ki ([2]; Table P): 32 nM; FS CDK1/CDK2 ([2]; Table P): 32; pH3/OVISE fold selectivity (CDK1 over CDK2, cellular assay data) [3]: 0.31 fold; IC50 ([3]; Table P): 43 nM; FS p-H3/OVISE ([3]; Table P): 0.31; Ki ([5]; Table P): 250 nM; FS CDK4/CDK2 ([5]; Table P): 250; IC50 ([6]; SK-OV-3, Table P): 6700 nM; FS SKOV-3/OVISE ([6]; Table P): 48 |
| CNc1nccc(Nc2cc([C@H]3CC[C@@H](OC(=O)NC(C)C)C3)[nH]n2)n1 [Example 2H, (1R,3S)-3-(3-((2-(methylamino)pyrimidin-4-yl)amino)-1H-pyrazol-5-yl)cyclopentyl isopropylcarbamate] | 67 nM | 16 | 0.48 | 7.5 nM | 32 nM | 0.28 nM | 27 | 64 | 18 nM | 1100 nM | (+) (The (+) sign in Table Q signifies desirable increased fold-selectivity of the exemplary compounds over Comparator C) | 16 | 82 fold | 114 fold | (+) (The (+) sign in Table Q signifies desirable increased fold-selectivity of the exemplary compounds over Comparator C) | 0.28 nM | 27 | 64 | 1100 nM | ≤ 1 nM | – |
| CNC(=O)c1cnc(Nc2cc([C@H]3CC[C@@H](OC(=O)NC45CC(C4)C5)C3)[nH]n2)c(C)n1 [Example 9E, (1R,3S)-3-(3-((3-methyl-5-(methylcarbamoyl)pyrazin-2-yl)amino)-1H-pyrazol-5-yl)cyclopentyl bicyclo[1.1.1]pentan-1-ylcarbamate] | 200 nM | 5 | 1.0 | 69 nM | 220 nM | 2.1 nM | 33 | 90 | 190 nM | 1000 nM | – | – | – | – | – | – | – | – | – | – | – |
| CC(C)NC(=O)O[C@@H]1CC[C@H](c2cc(Nc3ccncn3)n[nH]2)C1 [Example 2C, (1R,3S)-3-(3-(pyrimidin-4-ylamino)-1H-pyrazol-5-yl)cyclopentyl isopropylcarbamate] | 110 nM | 37 | 0.47 | 43 nM | 52 nM | 1.1 nM | 39 | 86 | 95 nM | 4100 nM | (+) (The (+) sign in Table Q signifies desirable increased fold-selectivity of the exemplary compounds over Comparator C) | 37 | 50 fold | 32 fold | (+) (The (+) sign in Table Q signifies desirable increased fold-selectivity of the exemplary compounds over Comparator C) | 1.1 nM | 39 | 86 | 4100 nM | – | increased fold-selectivity CDK1/CDK2 over Comparator C ([4]; Table Q): (+) (The (+) sign in Table Q signifies desirable increased fold-selectivity of the exemplary compounds over Comparator C) |

— US20240425478A1, “CYCLOPENTYLPYRAZOLE CDK2 INHIBITORS” (Genentech, Inc., priority 2021, published 2024)
